What all share (format): cell-based
Experiment [1] has as its target Sodium-dependent dopamine transporter (Homo sapiens, UniProt Q01959). As to the kind of experiment: Displacement of [N-methyl-3H]WIN-35428 from human recombinant DAT expressed in pig LLCPK cells after 2 hrs by liquid scintillation counting.
Experiment [2] has as its target Sodium-dependent noradrenaline transporter (Homo sapiens, UniProt P23975). Briefly: Displacement of [N-methyl-3H]nisoxetine from human recombinant NET expressed in pig LLCPK cells after 2 hrs by liquid scintillation counting.
In experiment [3] the target is Sodium-dependent serotonin transporter (Homo sapiens, UniProt P31645). Briefly: Displacement of [N-methyl-3H]citalopram from human recombinant SERT expressed in pig LLCPK cells after 2 hrs by liquid scintillation counting.
Chain of Sodium-dependent serotonin transporter (P31645 whole entry): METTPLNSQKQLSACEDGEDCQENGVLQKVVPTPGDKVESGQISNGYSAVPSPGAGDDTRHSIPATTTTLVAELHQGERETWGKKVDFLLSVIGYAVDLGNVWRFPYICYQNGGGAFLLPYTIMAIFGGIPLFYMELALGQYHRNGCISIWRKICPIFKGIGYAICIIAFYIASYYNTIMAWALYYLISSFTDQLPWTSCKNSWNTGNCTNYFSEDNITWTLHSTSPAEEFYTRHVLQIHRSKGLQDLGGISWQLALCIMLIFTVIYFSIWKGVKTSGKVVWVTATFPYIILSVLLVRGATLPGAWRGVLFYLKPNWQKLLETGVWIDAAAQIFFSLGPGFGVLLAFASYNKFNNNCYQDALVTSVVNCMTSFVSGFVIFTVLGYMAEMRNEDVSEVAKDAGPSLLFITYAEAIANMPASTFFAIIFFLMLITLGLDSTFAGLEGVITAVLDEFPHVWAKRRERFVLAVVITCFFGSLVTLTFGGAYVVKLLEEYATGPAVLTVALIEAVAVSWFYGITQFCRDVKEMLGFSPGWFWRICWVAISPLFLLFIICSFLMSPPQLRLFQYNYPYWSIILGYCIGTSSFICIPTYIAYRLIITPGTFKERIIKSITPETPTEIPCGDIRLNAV

This is an account of results in ChEMBL document CHEMBL1177725, “6-(3,4-dichlorophenyl)-1-[(methyloxy)methyl]-3-azabicyclo[4.1.0]heptane: a new potent and selective triple reuptake inhibitor” (J Med Chem, 2010).

For orientation: Ki means the equilibrium dissociation constant of an inhibitor or competing ligand from its target.

Chain of Sodium-dependent noradrenaline transporter (P23975 whole entry): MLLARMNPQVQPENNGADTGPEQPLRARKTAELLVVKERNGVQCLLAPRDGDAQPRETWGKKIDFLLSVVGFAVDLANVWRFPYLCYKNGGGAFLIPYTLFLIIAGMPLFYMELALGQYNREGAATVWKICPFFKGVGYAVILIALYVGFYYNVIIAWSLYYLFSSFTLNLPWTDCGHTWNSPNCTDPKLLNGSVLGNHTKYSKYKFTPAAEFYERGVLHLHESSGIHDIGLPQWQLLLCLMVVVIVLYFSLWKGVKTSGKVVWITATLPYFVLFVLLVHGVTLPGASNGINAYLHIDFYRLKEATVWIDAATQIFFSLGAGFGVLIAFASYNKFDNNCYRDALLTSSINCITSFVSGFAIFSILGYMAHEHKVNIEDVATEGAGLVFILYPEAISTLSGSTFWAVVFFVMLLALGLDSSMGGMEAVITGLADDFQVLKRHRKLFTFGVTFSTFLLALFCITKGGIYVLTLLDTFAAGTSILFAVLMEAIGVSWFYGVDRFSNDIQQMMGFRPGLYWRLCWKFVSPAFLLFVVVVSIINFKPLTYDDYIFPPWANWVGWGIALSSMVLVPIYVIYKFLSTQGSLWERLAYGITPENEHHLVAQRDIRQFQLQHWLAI
Chain of Sodium-dependent dopamine transporter (Q01959 whole entry): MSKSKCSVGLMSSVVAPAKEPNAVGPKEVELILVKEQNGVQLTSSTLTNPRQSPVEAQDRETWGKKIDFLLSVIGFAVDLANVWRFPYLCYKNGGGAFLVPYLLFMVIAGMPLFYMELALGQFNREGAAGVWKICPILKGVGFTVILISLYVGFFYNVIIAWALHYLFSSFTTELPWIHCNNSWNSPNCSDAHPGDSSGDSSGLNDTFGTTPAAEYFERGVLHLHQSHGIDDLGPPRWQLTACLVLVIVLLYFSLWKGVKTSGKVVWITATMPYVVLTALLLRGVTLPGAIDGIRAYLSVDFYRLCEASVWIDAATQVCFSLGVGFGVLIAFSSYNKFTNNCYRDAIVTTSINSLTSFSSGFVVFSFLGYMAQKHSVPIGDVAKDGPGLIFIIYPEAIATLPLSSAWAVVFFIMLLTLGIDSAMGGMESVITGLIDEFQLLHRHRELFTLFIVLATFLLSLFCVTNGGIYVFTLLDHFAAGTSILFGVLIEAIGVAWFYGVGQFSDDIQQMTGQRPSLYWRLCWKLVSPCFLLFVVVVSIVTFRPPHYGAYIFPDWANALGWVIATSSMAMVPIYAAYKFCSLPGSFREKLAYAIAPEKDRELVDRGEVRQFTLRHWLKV

Regarding `Clc1ccc([C@]23CNCC[C@H]2C3)cc1Cl` (racemic) [1-PHENYL-3-AZABICYCLO[4.1.0]HEPTANE (STRUCTURAL MIX)], the Ki was 79.4 nM in experiment [1], 158 nM in experiment [2] and 126 nM in experiment [3].
The matching figures for `CCOC[C@@]12CNCC[C@]1(c1ccc(Cl)c(Cl)c1)C2` (racemic) [6-(3,4-DICHLOROPHENYL)-1-[(ETHYLOXY)METHYL]-3-AZABICYCLO[4.1.0]-HEPTANE (ENANTIOMERIC MIX)]: 6.31 nM, 10 nM and 1.26 nM.
Turning to `NC(=O)[C@@]12CNCC[C@]1(c1ccc(Cl)c(Cl)c1)C2` (racemic), the Ki in experiment [1] is 251 nM; in experiment [2], 794 nM; in experiment [3], 100 nM.
As to `OC[C@@]12CNCC[C@]1(c1ccc(Cl)c(Cl)c1)C2` (racemic) [RAC-1-(3,4-DICHLOROPHENYL)-3-AZABICYCLO[4.1.0]HEPTAN-6-YL)METHANOL (STRUCTURAL MIX)], the inhibitory constant (Ki) in experiment [1] is 200 nM; in experiment [2], 158 nM; in experiment [3] it was 20 nM.
The matching figures for `Clc1ccc([C@]23CCNC[C@@]2(COCC2CC2)C3)cc1Cl` (relative stereo; 34) [1-((CYCLOPROPYLMETHOXY)METHYL)-6-(3,4-DICHLOROPHENYL)-3-AZABICYCLO[4.1.0]HEPTANE (ENANTIOMERIC MIX)]: 3.16 nM, 20 nM and 0.398 nM.
The corresponding values for `COC[C@@]12CNC[C@@H](OC)[C@]1(c1ccc(Cl)c(Cl)c1)C2` (racemic) are 398 nM, 1580 nM and 251 nM.
The corresponding values for `COC[C@@]12CNCC[C@]1(c1ccc3ccccc3c1)C2` (single isomer, unassigned; 27) [1-(METHOXYMETHYL)-6-(NAPHTHALEN-2-YL)-3-AZABICYCLO[4.1.0]HEPTANE (ENANTIOMERIC MIX)] are 100 nM, 39.8 nM and 1 nM.
Take `Clc1ccc([C@]23CCN4CC[C@]2(C4)C3)cc1Cl` (single isomer, unassigned; 50) [3-(3,4-DICHLORO-PHENYL)-6-AZA-TRICYCLO[4.2.1.0*1,3*]NONANE (STRUCTURAL MIX)]: the Ki in experiment [1] was 251 nM; in experiment [2], 794 nM; in experiment [3], 31.6 nM.
Turning to `COC[C@@]12CN(C)CC[C@]1(c1ccc(Cl)c(Cl)c1)C2`, the Ki was 31.6 nM in experiment [1], 794 nM in experiment [2] and 12.6 nM in experiment [3].
The matching figures for `COC[C@@]12CNCC[C@]1(c1ccc(F)c(Cl)c1)C2` (racemic): 158 nM, 316 nM and 1.58 nM.
Turning to `Clc1ccc([C@]23CCNC[C@@]2(COCC2CC2)C3)cc1Cl` (relative stereo; 35) [1-((CYCLOPROPYLMETHOXY)METHYL)-6-(3,4-DICHLOROPHENYL)-3-AZABICYCLO[4.1.0]HEPTANE (ENANTIOMERIC MIX)], the Ki in experiment [1] is 63.1 nM; in experiment [2], 126 nM; in experiment [3], 3.98 nM.
For `CCOC[C@@]12CNCC[C@]1(c1ccc(Cl)c(Cl)c1)C2` (relative stereo; 31) [6-(3,4-DICHLOROPHENYL)-1-[(ETHYLOXY)METHYL]-3-AZABICYCLO[4.1.0]-HEPTANE (ENANTIOMERIC MIX)], the Ki in experiment [1] was 3.98 nM; in experiment [2], 7.94 nM; in experiment [3] it was 1 nM.
The matching figures for `COC[C@@]12CNCC[C@]1(c1ccc(C(F)(F)F)c(Cl)c1)C2` (racemic): 1580 nM, 126 nM and 15.8 nM.
The matching figures for `COC[C@@]12CNC[C@H](OC)[C@]1(c1ccc(Cl)c(Cl)c1)C2` (racemic): 501 nM, 1260 nM and 100 nM.
In the case of `Clc1ccc([C@@H]2CCNC[C@@]23CCCOC3)cc1Cl`, the Ki is 12.6 nM in experiment [1], 3.98 nM in experiment [2] and 0.316 nM in experiment [3].
`Clc1ccc([C@]23CNCC[C@H]2C3)cc1Cl` (relative stereo; 4) [1-PHENYL-3-AZABICYCLO[4.1.0]HEPTANE (STRUCTURAL MIX)]: the Ki in experiment [1] was 39.8 nM; in experiment [2], 63.1 nM; in experiment [3], 79.4 nM.
`CC(=O)[C@@]12CNCC[C@]1(c1ccc(Cl)c(Cl)c1)C2` (relative stereo): the figures for the Ki in experiment [1], in experiment [2] and in experiment [3] were 3.98 nM, 15.8 nM and 1 nM, respectively.
For `Clc1ccc([C@]23CNCC[C@H]2C3)cc1Cl` (relative stereo; 5) [1-PHENYL-3-AZABICYCLO[4.1.0]HEPTANE (STRUCTURAL MIX)], the values for the inhibitory constant (Ki) in experiment [1], in experiment [2] and in experiment [3] were 100 nM, 398 nM and 251 nM, respectively.
As to `COC[C@H]1[C@@H]2CNCC[C@@]21c1ccc(Cl)c(Cl)c1` (racemic), the Ki in experiment [1] was 1260 nM; in experiment [2], 2000 nM; in experiment [3], 50.1 nM.
For the compound `COC[C@@]12CCNC[C@]1(c1ccc(Cl)c(Cl)c1)C2` (single isomer, unassigned) [RAC-1-(3,4-DICHLOROPHENYL)-6-(METHOXYMETHYL)-2-AZABICYCLO[4.1.0]HEPTANE (ENANTIOMERS)], the values for the inhibition constant Ki in experiment [1], in experiment [2] and in experiment [3] were 631 nM, 1000 nM and 158 nM, respectively.
For `CCOC(=O)[C@@]12CNCC[C@]1(c1ccc(Cl)c(Cl)c1)C2` (racemic), the Ki in experiment [1] is 5.01 nM; in experiment [2] it was 7.94 nM; in experiment [3], 15.8 nM.
The matching figures for `OC[C@@]12CNCC[C@]1(c1ccc(Cl)c(Cl)c1)C2` (relative stereo; 15) [RAC-1-(3,4-DICHLOROPHENYL)-3-AZABICYCLO[4.1.0]HEPTAN-6-YL)METHANOL (STRUCTURAL MIX)]: 79.4 nM, 100 nM and 7.94 nM.
The matching figures for `FC(F)(F)COC[C@@]12CNCC[C@]1(c1ccc(Cl)c(Cl)c1)C2` (racemic): 39.8 nM, 79.4 nM and 6.31 nM.
The matching figures for `COC[C@@H]1[C@@H]2CNCC[C@]12c1ccc(Cl)c(Cl)c1` (racemic): 398 nM, 316 nM and 10 nM.
As for `COC[C@@]12CNCC[C@]1(c1ccc(Cl)cc1)C2` (racemic), the inhibition constant Ki in experiment [1] was 251 nM; in experiment [2], 200 nM; in experiment [3], 15.8 nM.
The matching figures for `CC#CNC(=O)[C@@]12CNCC[C@]1(c1ccc(Cl)c(Cl)c1)C2` (racemic): 158 nM, 501 nM and 100 nM.
The matching figures for `Clc1ccc([C@]23CCNC[C@@]2(COCC2CC2)C3)cc1Cl` (racemic) [1-((CYCLOPROPYLMETHOXY)METHYL)-6-(3,4-DICHLOROPHENYL)-3-AZABICYCLO[4.1.0]HEPTANE (ENANTIOMERIC MIX)]: 12.6 nM, 50.1 nM and 1.26 nM.
`COC[C@@H]1[C@@H]2CCNC[C@]12c1ccc(Cl)c(Cl)c1` (racemic): the inhibition constant (Ki) in experiment [1] is 126 nM; in experiment [2], 63.1 nM; in experiment [3], 31.6 nM.
The corresponding values for `COC[C@@]12CNCC[C@]1(c1ccc(OC(F)(F)F)cc1)C2` (racemic) are 7940 nM, 3160 nM and 3.16 nM.
